Our source for the GI50 and TGI values is PubChem BioAssay (NCI).

Several values for one entry are separate records, joined by “and”; a condition that tells them apart may be missing. Equal entries are not always repeated.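 Tested at 5 concentrations; 48 h exposure; 96-well plates; endpoints linearly interpolated, else capped at highest concentration. GI50 = concentration required for 50% inhibition of growth. TGI is the concentration that stops growth completely.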 Bounds are passed on as bounds.

Among the test systems are NCI/ADR-RES ovarian; RPMI-8226 leukemia; HCT-116 colon; SNB-19 CNS; M14 melanoma; EKVX NSCLC; CAKI-1 renal; MDA-MB-231 breast; RXF 393 renal; ACHN renal.
Assay in all cases: NCI-60 cell line screen, 48 h

Consider `COC(=O)c1cccc(NC(=O)c2ccc(NC3=C(Cl)C(=O)N(Cc4ccccc4)C3=O)cc2)c1`, for which the GI50 with NCI/ADR-RES ovarian is 15.9 µM; in the test with RPMI-8226 leukemia, 10.7 µM; in the test with HCT-116 colon, 3.49 µM; with SNB-19 CNS, 28.5 µM; in the test on M14 melanoma, 9.75 µM; in the test on EKVX NSCLC it was 23.6 µM. Moreover, the GI50 was 1.72 µM in the test with CAKI-1 renal, 10.7 µM in the test on MDA-MB-231 breast and 13.9 µM in the test on RXF 393 renal. The TGI was 37.6 µM with NCI/ADR-RES ovarian; 23.9 µM with RPMI-8226 leukemia; 14.9 µM in the test on HCT-116 colon; more than 100 µM in the test with SNB-19 CNS; 23 µM in the test with M14 melanoma; 63.6 µM with EKVX NSCLC. For the same compound, the TGI in the test with CAKI-1 renal stood at 3.14 µM; in the test on MDA-MB-231 breast, 32.1 µM; in the test on RXF 393 renal, 60.2 µM.
With `COc1cc(C)[nH]c(=O)c1CNC(=O)c1c(C)n([C@H](C)C2CCN(CC(F)(F)F)CC2)c2ccccc12`, the GI50 with NCI/ADR-RES ovarian is 77.2 µM; with RPMI-8226 leukemia, 32.5 µM; in the test with HCT-116 colon, 59.3 µM; in the test with SNB-19 CNS, 74.5 µM; in the test on M14 melanoma it was 67.8 µM; with EKVX NSCLC, 37.5 µM. The values for the GI50 with MDA-MB-231 breast and in the test with RXF 393 renal were 51 µM and 21.7 µM, respectively. Also, the TGI in the test with NCI/ADR-RES ovarian, with RPMI-8226 leukemia, in the test with HCT-116 colon, in the test with SNB-19 CNS, with M14 melanoma and in the test with EKVX NSCLC was more than 100 µM each time. Also, the figures for the TGI with MDA-MB-231 breast and in the test on RXF 393 renal were more than 100 µM and 99.5 µM, respectively.
Take `CC1[C@@H]2CC=C3[C@H]4CCC5Cc6nc7c(nc6C[C@@]5(C)C4CC(=O)[C@]32CO[C@]12OC(C)(C)CC2O)CC1CC[C@@H]2C3=C[C@H]4O[C@@]5(O[C@@](C)(CO)C[C@@H]5O)C(C)[C@@]4(O)[C@]3(C)[C@@H](O)CC2[C@]1(C)C7` (stereo partly specified): the TGI is 0.561 µM and > 3.65 µM in the test with NCI/ADR-RES ovarian; 0.000261 µM and < 0.000365 µM in the test on RPMI-8226 leukemia; 0.0837 µM and 0.532 µM in the test on HCT-116 colon; 0.537 µM and 0.443 µM with SNB-19 CNS; 0.0124 µM in the test on M14 melanoma; 0.846 µM with ACHN renal. For the same compound, the TGI with EKVX NSCLC was 0.141 µM and 0.227 µM; in the test with MDA-MB-231 breast, 0.284 µM; in the test on RXF 393 renal it was 0.000428 µM and 0.00414 µM. Also, the GI50 in the test on RPMI-8226 leukemia is 0.000106 µM and < 0.000365 µM; with HCT-116 colon, 0.000846 µM and 0.00281 µM; in the test with SNB-19 CNS, 0.00459 µM and 0.00921 µM; in the test with M14 melanoma it was 0.00131 µM; in the test with ACHN renal it was 0.00805 µM; with EKVX NSCLC, 0.00539 µM and 0.00763 µM. Moreover, the GI50 with MDA-MB-231 breast is 0.00121 µM; in the test on RXF 393 renal, 0.000365 µM.
Regarding `CC(=O)Nc1cc2c3c(cccc3c1)-c1ccccc1-2`, the GI50 in the test with NCI/ADR-RES ovarian was 26.1 µM; in the test with HCT-116 colon it was more than 100 µM; with SNB-19 CNS it was 40.2 µM; with M14 melanoma, more than 100 µM; in the test on ACHN renal it was 19.2 µM; with EKVX NSCLC, 7.94 µM. Besides, the values for the GI50 with CAKI-1 renal, in the test on MDA-MB-231 breast and in the test on RXF 393 renal were 4 µM, 10.6 µM and 15.8 µM, respectively. Further, the TGI in the test with NCI/ADR-RES ovarian is more than 100 µM; in the test with HCT-116 colon, more than 100 µM; with SNB-19 CNS it was more than 100 µM; in the test on M14 melanoma, more than 100 µM; with ACHN renal it was 52.2 µM; in the test with EKVX NSCLC, 38.9 µM. Further, the values for the TGI with CAKI-1 renal, in the test on MDA-MB-231 breast and with RXF 393 renal were 23.8 µM, 25.8 µM and 34.9 µM, respectively.
Consider `O=C(/C=C/C=C/c1ccc2c(c1)OCO2)N/N=C\c1ccc(O)cc1O`, for which the GI50 in the test with NCI/ADR-RES ovarian was 1.29 µM; in the test with HCT-116 colon, 2.02 µM; in the test with SNB-19 CNS, 2.79 µM; with M14 melanoma, 1.67 µM; in the test with ACHN renal, 1.99 µM; in the test with EKVX NSCLC, 2.05 µM. The GI50 is 2.24 µM with CAKI-1 renal, 3.49 µM in the test on MDA-MB-231 breast and 1.74 µM with RXF 393 renal. In addition, the TGI with NCI/ADR-RES ovarian turned out to be 7.6 µM; in the test with HCT-116 colon it was 14.5 µM; with SNB-19 CNS it was 24.2 µM; in the test with M14 melanoma it was 11.5 µM; in the test with ACHN renal, 13.1 µM; with EKVX NSCLC, 15.1 µM. Moreover, the TGI with CAKI-1 renal was 15.2 µM; with MDA-MB-231 breast, 19.3 µM; in the test on RXF 393 renal it was 6.88 µM.
For `CN1CCN(CCC=C2c3ccccc3Sc3ccc(S(=O)(=O)N(C)C)cc32)CC1`, the GI50 in the test on NCI/ADR-RES ovarian was 5.5 µM and 13.2 µM; in the test with RPMI-8226 leukemia, 2.33 µM and 2.6 µM; in the test with HCT-116 colon, 3 µM and 3.35 µM; in the test on M14 melanoma, 1.97 µM and 2.1 µM; in the test with ACHN renal, 5.27 µM and 10.2 µM; in the test on EKVX NSCLC, 9.15 µM and 13.6 µM. Moreover, the GI50 in the test with CAKI-1 renal was 3.45 µM and 5.41 µM; in the test on MDA-MB-231 breast, 1.82 µM and 4.4 µM; with RXF 393 renal it was 1.68 µM. For the same compound, the TGI in the test on NCI/ADR-RES ovarian was 26.5 µM and 37.5 µM; in the test with RPMI-8226 leukemia it was 6.55 µM and 8.62 µM; in the test on HCT-116 colon it was > 100 µM and 23.8 µM; in the test with M14 melanoma, 3.63 µM and 4.57 µM; in the test with ACHN renal it was 27.3 µM and 27.6 µM; in the test with EKVX NSCLC it was > 100 µM and 63.5 µM. The TGI with CAKI-1 renal is 20.6 µM and 23.9 µM; in the test with MDA-MB-231 breast, 4.43 µM and 16.8 µM; with RXF 393 renal, 5.52 µM.
As for `COc1cc(C2CC(c3cccc(Nc4ccnc5cc(Cl)ccc45)c3)=NN2c2ccccc2)cc(OC)c1OC` (stereo unspecified), the GI50 with NCI/ADR-RES ovarian was 5.97 µM; in the test on RPMI-8226 leukemia it was 5.33 µM; in the test on HCT-116 colon, 6.51 µM; in the test with SNB-19 CNS, more than 100 µM; in the test with M14 melanoma, 2.6 µM; with ACHN renal, 3.52 µM. In addition, the values for the GI50 in the test with CAKI-1 renal, in the test on MDA-MB-231 breast and with RXF 393 renal were 2.52 µM, 4.77 µM and 8.37 µM, respectively. Moreover, the TGI with NCI/ADR-RES ovarian, with RPMI-8226 leukemia, with HCT-116 colon, in the test on SNB-19 CNS, in the test with M14 melanoma and in the test on ACHN renal was more than 100 µM throughout. Besides, the TGI in the test on CAKI-1 renal, in the test on MDA-MB-231 breast and in the test with RXF 393 renal was more than 100 µM in each case.
With `COC(=O)c1c2c(c(C)[n+]([O-])c1C)C(=O)C(NCc1ccc(O)cc1)=CC2=O`, the GI50 is 2.2 µM in the test on NCI/ADR-RES ovarian; 1.78 µM in the test with RPMI-8226 leukemia; 0.333 µM in the test with HCT-116 colon; 1.55 µM with M14 melanoma; 1.7 µM with ACHN renal; 1.73 µM in the test with EKVX NSCLC. Besides, the results for the GI50 in the test on CAKI-1 renal, with MDA-MB-231 breast and in the test with RXF 393 renal were 1.69 µM, 1.38 µM and 1.5 µM, respectively. For the same compound, the TGI was 6.37 µM in the test on NCI/ADR-RES ovarian; 4.18 µM in the test on RPMI-8226 leukemia; 1.24 µM with HCT-116 colon; 3.12 µM in the test with M14 melanoma; 3.22 µM with ACHN renal; 3.34 µM with EKVX NSCLC. For the same compound, the TGI in the test with CAKI-1 renal was found to be 4.26 µM; in the test with MDA-MB-231 breast, 4.34 µM; in the test with RXF 393 renal, 2.98 µM.
